Reference: patent US9187471B2, “Pyrido [4,3-b] indole and pyrido [3,4-b] indole derivatives and methods of use” (Medivation Technologies, Inc., priority 2010, dated 2015)

What was measured:
[1] = biological target: T1, rat adrenergic α1A receptor (Rattus norvegicus, UniProt P43140); test: Adrenergic α1A radioligand binding ([3H]Prazosin); conditions: read-out: Adrenergic (0.1 μM) a1A, percent inhibition of specific binding; compound at 0.1 μM; 0.25 nM [3H]Prazosin
T1 construct: rat adrenergic α1A receptor obtained from Wistar Rat submaxillary glands; from tissue; host or cells: Wistar rat submaxillary glands
T1 sequence (P43140 1-466): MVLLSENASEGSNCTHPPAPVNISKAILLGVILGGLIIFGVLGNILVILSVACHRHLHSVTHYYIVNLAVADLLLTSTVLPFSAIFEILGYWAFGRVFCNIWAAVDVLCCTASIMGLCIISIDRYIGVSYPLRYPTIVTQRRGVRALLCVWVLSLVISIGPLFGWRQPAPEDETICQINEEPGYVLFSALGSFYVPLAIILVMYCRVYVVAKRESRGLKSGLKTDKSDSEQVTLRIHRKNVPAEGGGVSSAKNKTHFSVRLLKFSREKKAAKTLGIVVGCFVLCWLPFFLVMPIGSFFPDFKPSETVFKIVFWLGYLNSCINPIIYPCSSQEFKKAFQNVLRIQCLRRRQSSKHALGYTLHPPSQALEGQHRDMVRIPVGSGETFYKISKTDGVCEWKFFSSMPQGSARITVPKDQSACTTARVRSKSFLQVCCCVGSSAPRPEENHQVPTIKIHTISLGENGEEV
Outline: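 Wistar rat submaxillary gland receptor in 50 mM Tris-HCl pH 7.4 with 0.5 mM EDTA, incubated with compound and 0.25 nM [3H]Prazosin for 60 min at 25 °C.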

[2] = biological target: T2, human recombinant adrenergic α2C receptor (Homo sapiens, UniProt P18825); test: Adrenergic α2C radioligand binding ([3H]MK-912); conditions: read-out: Adrenergic (0.1 μM) a2C, percent inhibition of specific binding; compound at 0.1 μM; 1 nM [3H]MK-912
T2 construct: expressed in transfected cells; host or cells: insect Sf9 cells
T2 sequence (P18825 1-462): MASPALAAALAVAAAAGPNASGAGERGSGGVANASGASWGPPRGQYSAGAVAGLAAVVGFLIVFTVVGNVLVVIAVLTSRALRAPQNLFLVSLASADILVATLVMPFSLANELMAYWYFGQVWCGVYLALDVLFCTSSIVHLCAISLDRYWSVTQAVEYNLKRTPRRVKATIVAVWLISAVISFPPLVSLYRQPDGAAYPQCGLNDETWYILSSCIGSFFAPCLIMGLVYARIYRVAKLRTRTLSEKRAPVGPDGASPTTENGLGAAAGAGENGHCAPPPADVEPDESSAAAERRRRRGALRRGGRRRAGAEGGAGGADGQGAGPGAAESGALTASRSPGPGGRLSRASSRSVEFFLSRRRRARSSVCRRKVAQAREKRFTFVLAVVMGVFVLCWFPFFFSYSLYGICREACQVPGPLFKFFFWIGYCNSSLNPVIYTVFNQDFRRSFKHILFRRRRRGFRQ
Outline: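 Membranes from Sf9 cells expressing the human receptor, in 50 mM Tris-HCl pH 7.4 with 12.5 mM MgCl2 and 2 mM EDTA, incubated with compound and 1 nM [3H]MK-912 for 60 min at 25 °C. Non-specific binding defined with 10 μM WB-4101. Filter-bound radioactivity counted; percent inhibition of specific binding reported.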

[3] = biological target: T3, human recombinant serotonin (5-Hydroxytryptamine) 5-HT6 receptor (Homo sapiens, UniProt P50406); test: Serotonin 5-HT6 radioligand binding ([3H]LSD); conditions: compound at 0.1 μM; read-out: Inhibition of ligand binding, Serotonin 5-HT6 (percent inhibition of specific binding)
T3 construct: expressed in transfected cells; host or cells: HeLa
T3 sequence (P50406 whole entry): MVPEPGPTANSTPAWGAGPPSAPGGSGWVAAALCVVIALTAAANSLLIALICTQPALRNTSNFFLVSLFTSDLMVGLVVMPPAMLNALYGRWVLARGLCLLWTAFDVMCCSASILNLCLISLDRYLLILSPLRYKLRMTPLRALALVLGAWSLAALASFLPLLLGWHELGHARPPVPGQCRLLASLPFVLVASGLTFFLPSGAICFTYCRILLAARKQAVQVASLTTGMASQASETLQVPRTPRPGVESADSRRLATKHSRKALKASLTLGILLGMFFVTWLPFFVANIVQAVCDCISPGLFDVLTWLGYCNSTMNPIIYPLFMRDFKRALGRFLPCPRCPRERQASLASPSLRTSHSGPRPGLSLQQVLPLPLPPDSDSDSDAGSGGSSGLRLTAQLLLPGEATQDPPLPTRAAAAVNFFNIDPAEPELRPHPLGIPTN
Description: Receptor proteins were filtered and washed, the filters were then counted to determine [3H]LSD specifically bound.

[4] = biological target: T4, human recombinant serotonin (5-Hydroxytryptamine) 5-HT5A receptor (Homo sapiens, UniProt P47898); test: Serotonin 5-HT5A radioligand binding ([3H]LSD); conditions: compound at 0.1 μM; read-out: Inhibition of ligand binding, Serotonin 5-HT5A (percent inhibition of specific binding)
T4 construct: expressed in transfected cells; host or cells: CHO-K1
T4 sequence (P47898 whole entry): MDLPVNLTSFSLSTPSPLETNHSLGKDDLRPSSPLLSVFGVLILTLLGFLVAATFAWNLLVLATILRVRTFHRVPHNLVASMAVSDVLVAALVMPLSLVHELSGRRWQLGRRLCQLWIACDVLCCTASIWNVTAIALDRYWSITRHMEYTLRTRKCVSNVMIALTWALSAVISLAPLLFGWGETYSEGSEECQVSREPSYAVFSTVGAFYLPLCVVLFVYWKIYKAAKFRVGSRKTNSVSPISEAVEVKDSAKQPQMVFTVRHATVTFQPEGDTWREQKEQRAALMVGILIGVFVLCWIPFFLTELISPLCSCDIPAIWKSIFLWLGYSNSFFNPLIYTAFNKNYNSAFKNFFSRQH
Procedure: Compounds of the invention were incubated with 1.7 nM [^3H]Lysergic acid diethylamide (LSD) for 60 min at 37° C. […] Receptor proteins were filtered and washed, the filters were counted to determine [^3H]LSD specifically bound.

[5] = biological target: T5, human recombinant histamine H1 receptor (Homo sapiens, UniProt P35367); test: Histamine H1 radioligand binding ([3H]Pyrilamine); conditions: read-out: Histamine H1 Binding (1 μM), percent inhibition of specific binding; compound at 1 μM; 1.2 nM [3H]Pyrilamine
T5 construct: expressed in transfected cells; host or cells: CHO-K1
T5 sequence (P35367 whole entry): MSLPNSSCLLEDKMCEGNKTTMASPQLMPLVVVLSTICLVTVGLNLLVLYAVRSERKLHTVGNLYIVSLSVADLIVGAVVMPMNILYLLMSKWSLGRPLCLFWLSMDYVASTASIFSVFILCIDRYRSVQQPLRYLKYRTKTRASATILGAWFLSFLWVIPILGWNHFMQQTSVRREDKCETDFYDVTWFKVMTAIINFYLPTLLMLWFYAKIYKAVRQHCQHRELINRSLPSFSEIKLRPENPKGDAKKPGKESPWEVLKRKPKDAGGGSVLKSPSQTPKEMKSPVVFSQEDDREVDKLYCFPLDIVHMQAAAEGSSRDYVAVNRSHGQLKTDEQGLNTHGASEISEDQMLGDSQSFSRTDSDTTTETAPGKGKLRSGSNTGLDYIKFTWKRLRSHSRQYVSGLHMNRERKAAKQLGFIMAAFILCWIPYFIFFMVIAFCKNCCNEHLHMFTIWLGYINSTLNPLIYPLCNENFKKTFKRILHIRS
Outline: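 Results expressed as percent inhibition of specific [3H]pyrilamine binding, counted on filters after washing. Receptor source: CHO-K1 cells expressing recombinant human H1, in modified Tris-HCl buffer (50 mM, pH 7.4; 2 mM MgCl2, 100 mM NaCl, 250 mM sucrose). 1 μM pyrilamine defined non-specific binding.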

Structure (SMILES) | inhibition at 0.1 µM [1] [%] | inhibition at 0.1 µM [2] [%] | inhibition at 0.1 µM [3] [%] | inhibition at 0.1 µM [4] [%] | inhibition at 1 µM [5] [%]
Cc1ccc2c(c1)c1c(n2-c2cscc2-c2ccc(O)nc2)CCN(C)C1 [Compound 49] | 15 | -10 | 6 | 52 | 7
Cc1ccc2c(c1)c1c(n2-c2cccc(-c3ccc(S(N)(=O)=O)cc3)c2)CCN(C)C1 [Compound No. 158, 3′-(2,8-dimethyl-3,4-dihydro-1H-pyrido[4,3-b]indol-5(2H)-yl)biphenyl-4-sulfonamide] | 4 | 0 | 14 | 62 | 1
CC(=O)Nc1ccc(-c2cccc(-n3c4c(c5cc(C)ccc53)CN(C)CC4)c2)cn1 [Compound 45, N-(5-(3-(2,8-dimethyl-3,4-dihydro-1H-pyrido[4,3-b]indol-5(2H)-yl)phenyl)pyridin-2-yl)acetamide] | 13 | 7 | 6 | 37 | 8
Cc1ccc2c(c1)c1c(n2-c2cccc(-c3cc4ccccc4s3)c2)CCN(C)C1 [Compound 51, 5-(3-(benzo[b]thiophen-2-yl)phenyl)-2,8-dimethyl-2,3,4,5-tetrahydro-1H-pyrido[4,3-b]indole] | -6 | -9 | 15 | 5 | 36
Cc1ccc2c(c1)c1c(n2-c2ccc(-c3cccc4ccccc34)cn2)CCN(C)C1 [Compound No. 141, 2,8-dimethyl-5-(5-(naphthalen-1-yl)pyridin-2-yl)-2,3,4,5-tetrahydro-1H-pyrido[4,3-b]indole] | 33 | 16 | 0 | 87 | 11
Cc1csc(-c2cscc2-n2c3c(c4cc(C)ccc42)CN(C)CC3)c1 [Compound 50] | 65 | 90 | 36 | 81 | 54
Cc1ccc2c(c1)c1c(n2-c2cscc2-c2ccc3c(ccn3C)c2)CCN(C)C1 [Compound 33] | 57 | 87 | 60 | 93 | -7
Cc1ccc2c(c1)c1c(n2-c2cscc2-c2c(C)noc2C)CCN(C)C1 [Compound 62] | 9 | 33 | 28 | 54 | 27
Cc1ccc2c(c1)c1c(n2-c2ccc(-c3cnc(N(C)C)nc3)cn2)CCN(C)C1 [Compound No. 138, 5-(6-(2,8-dimethyl-3,4-dihydro-1H-pyrido[4,3-b]indol-5(2H)-yl)pyridin-3-yl)-N,N-dimethylpyrimidin-2-amine] | 32 | -2 | -6 | 13 | 7
Cc1ccc2c(c1)c1c(n2-c2cccc(-c3ccc(O)nc3)c2)CCN(C)C1 [Compound 52, 5-(3-(2,8-dimethyl-3,4-dihydro-1H-pyrido[4,3-b]indol-5(2H)-yl)phenyl)pyridin-2-ol] | -1 | 2 | 17 | 55 | 14
Cc1ccc2c(c1)c1c(n2-c2ccccc2-c2c(C)noc2C)CCN(C)C1 [Compound No. 82, 4-(2-(2,8-dimethyl-3,4-dihydro-1H-pyrido[4,3-b]indol-5(2H)-yl)phenyl)-3,5-dimethylisoxazole] | 3 | 7 | 14 | 9 | 18
Cc1ccc2c(c1)c1c(n2-c2cscc2-c2ccc3cnccc3c2)CCN(C)C1 [Compound No. 68] | 71 | 29 | 18 | 78 | 30
Cc1ccc2c(c1)c1c(n2-c2ccc(-c3cccc4[nH]ncc34)cn2)CCN(C)C1 [Compound No. 147, 5-(5-(1H-indazol-4-yl)pyridin-2-yl)-2,8-dimethyl-2,3,4,5-tetrahydro-1H-pyrido[4,3-b]indole] | 37 | 1 | 15 | 23 | 8
Cc1ccc2c(c1)c1c(n2-c2cccc(-c3ccnn3C)c2)CCN(C)C1 [Compound No. 66, 2,8-dimethyl-5-(3-(1-methyl-1H-pyrazol-5-yl)phenyl)-2,3,4,5-tetrahydro-1H-pyrido[4,3-b]indole] | 1 | 8 | 30 | 36 | 43
Cc1ccc2c(c1)c1c(n2-c2cccc(-c3cncc4ccccc34)c2)CCN(C)C1 [Compound No. 67, 5-(3-(isoquinolin-4-yl)phenyl)-2,8-dimethyl-2,3,4,5-tetrahydro-1H-pyrido[4,3-b]indole] | 1 | 8 | 29 | 39 | 32
Cc1ccc2c(c1)c1c(n2-c2cscc2-c2ccc(S(C)(=O)=O)cc2)CCN(C)C1 [Compound No. 76] | 82 | 79 | 14 | 90 | 19
CNC(=O)c1ccc(-c2cscc2-n2c3c(c4cc(C)ccc42)CN(C)CC3)cn1 [Compound No. 73] | 71 | 2 | 21 | 48 | 20
Cc1ccc2c(c1)c1c(n2-c2cccc(-c3cccn3C)c2)CCN(C)C1 [Compound No. 69, 2,8-dimethyl-5-(3-(1-methyl-1H-pyrrol-2-yl)phenyl)-2,3,4,5-tetrahydro-1H-pyrido[4,3-b]indole] | 8 | -4 | 21 | 36 | 42
Cc1ccc2c(c1)c1c(n2-c2cccc3ccncc23)CCN(C)C1 [Compound 58, 5-(isoquinolin-8-yl)-2,8-dimethyl-2,3,4,5-tetrahydro-1H-pyrido[4,3-b]indole] | 3 | -1 | 21 | 33 | 31
Cc1ccc2c(c1)c1c(n2-c2cccc(-c3ccc(F)cc3)c2)CCN(C)C1 [Compound 61, 5-(4′-fluorobiphenyl-3-yl)-2,8-dimethyl-2,3,4,5-tetrahydro-1H-pyrido[4,3-b]indole] | -5 | 8 | 18 | 24 | 42
